Values after ≈ are worked out from the molar mass of the structure shown. Like-named read-outs stand apart in the source and are kept apart here.
How the values were obtained:
M. abscessus Bamboo [1] = test: Broth MBC90 (bMBC90); assay type: cell-based, Mycobacterium abscessus
Excerpt: Broth MIC, broth MBC90 (bMBC90), and caseum surrogate MBC90 ([…]) of clinically used antibiotics and of novel ADP-ribosylation-resistant rifabutin analogs against M. abscessus Bamboo have been evaluated.

M. abscessus ATCC 19977 = test: MIC assay in 96-well plate format, wild-type strain; assay type: cell-based, Mycobacterium abscessus
In short: (§1)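 Two-fold, ten-point dilutions in 7H9 with 2% DMSO; mid-log culture diluted to OD600=0.1 (1×10^7 CFU/mL). Incubated 3 days at 37 °C, shaking 110 RPM; growth = Day 3 minus Day 0 OD600, expressed as percentage of drug-free growth and plotted against concentration. Two biological replicates.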

M. abscessus Bamboo [2] = test: Caseum surrogate MBC90 (cMBC90) kill assay; assay type: cell-based, Mycobacterium abscessus; details: for MBC: read-out: cMBC90
Excerpt: (§2) The surrogate matrix was generated as described previously from cultured THP-1 cells (ATCC TIB-202) (mBio, 2023, 14, e0059823). M. abscessus exponential cultures grown in Middlebrook 7H9 broth (Sigma Aldrich) (OD600 0.6-0.9) were spun down and resuspended in water to an OD600 of 7, 0.7, and 0.07. As described for the M. tuberculosis caseum surrogate assay (mnBio, 2023, 14, e0059823), the bacterial suspensions (at three different dilutions resulting in ˜10^9, 10^8, and 10^7 starting CFU/mL, represented by circle, square, and triangle indicators respectively) were added to the caseum surrogate in the ratio 2:1 (vol/wt), briefly homogenized with 1.4-mm zirconia beads, divided evenly into nine 1.5-mL microcentrifuge tubes, and incubated as standing cultures at 37° C. At the indicated time points, tubes were removed and used for CFU enumeration by plating on Middlebrook 7H11 agar (Sigma Aldrich). Separate tubes were used at each time point. To determine the kill curves, cultures with a starting CFU/mL of 10^8 were used (resulting in the middle curve with square indicators). Arrows indicate the time points when drugs were added and the end of the treatment. The experiment was repeated three times independently, yielding similar results. A representative example is shown. Dots and error bars represent means and standard deviations of three technical replicates, respectively.
FIGS. 29A-29M show the Dose-response kill curves against M. abscessus Bamboo in caseum surrogate. M. abscessus cultures were set up as described in the legend of FIG. 28. Bacterial cell suspensions were added to yield a starting CFU of 10^8/mL (FIG. 28, middle growth curve with square indicators). […] The shaded areas indicate drug concentration windows achieved in caseum in vivo. (Antimicrob. Agents Chemother., 2021, 65, e0050621; Antimicrob. Agents Chemother., 2022, 66, e0221221; PLoS Med., 2019, 16, e1002773; ACS Infect. Dis., 2016, 2, 251-267). The experiment was repeated twice independently, yielding similar results. A representative example is shown. Dots and error bars represent means and standard deviations of three technical replicates, respectively. Horizontal dotted lines indicate the cutoff for 1 log reduction in CFU compared to 10-day drug-free control culture. The cMBC90 values shown in Table 16 are the drug concentrations that reduce CFU by 90% relative to the CFU of drug-free controls at day 10. Since the cultures were in the stationary phase on day 5 when drug treatment started, the CFUs of the drug-free cultures at day 10 were similar to the CFUs of the drug-free cultures at day 5 (FIG. 28).
as §2, with “(doi: 10.1128/mbio.00598-23).” for “(mBio, 2023, 14, e0059823).”, “(doi: 10.1128/mbio.00598-23),” for “(mnBio, 2023, 14, e0059823),”, “CFU/mL)” for “CFU/mL, represented by circle, square, and triangle indicators respectively)”, “curves for the drugs,” for “curves,”, “used.” for “used (resulting in the middle curve with square indicators). Arrows indicate the time points when drugs were added and the end of the treatment.”, “results.” for “results. A representative example is shown. Dots and error bars represent means and standard deviations of three technical replicates, respectively.”
The experiment was repeated twice independently, yielding similar results. A representative example is shown. The cMBC90 values shown in Table 16 are the drug concentrations that reduce CFU by 90% relative to the CFU of drug-free controls at day 10. […]

M. abscessus Bamboo [3] = test: MIC assay, clinical isolate Bamboo; assay type: cell-based, Mycobacterium abscessus
Δarr M. abscessus = test: MIC assay, isogenic arr-deleted strain; assay type: cell-based, Mycobacterium abscessus; details: for Δarr Mab MIC: arr-deleted strain, 90% growth inhibition
In short: as §1

[4] = Mouse pharmacokinetics studies; assay type: in vivo, CD-1 mice; details: for AUCp.o.: po
In short: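 Plasma from K2EDTA-collected blood analysed by LC-MS/MS with multiple-reaction monitoring in electrospray positive mode. Parameters derived by non-compartmental analysis.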

[5] = Plasma protein binding assay (rapid equilibrium dialysis); assay type: in vitro ADME
In short: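 Rapid equilibrium dialysis ran 4 h at 37° C (300 RPM) with compound-spiked plasma (10,000 ng/mL) on one side and PBS on the other. Each side was then mixed 1:1 […] to equalise matrix before LC-MS/MS quantification.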

Mycobacterium abscessus = test: MIC against Mycobacterium abscessus (strain not given); assay type: cell-based
RFB-R1 M. abscessus = test: microbe, parasite or virus in culture; assay type: cell-based, Mycobacterium abscessus; details: Mycobacteroides abscessus, read-out: RFB-R1 M. abscessus MIC
[6] = Mycobacteroides abscessus, 120 h, broth, 5 days
[7] = Mycobacteroides abscessus, 120 h
[8] = Mycobacteroides abscessus, broth, M. abscessus Bamboo, Table 16, read-out: MIC

Experimental for CYP3A4: The threshold cycle (CT) was measured for each isoform cDNA by real time qRT-PCR. The mRNA level of each isoform was assessed by the relative quantifiation with reference gene (GAPDH) as the normalizer method. The normalized fold induction was calculated by 2^−ΔΔCT method, in which 0.1% DMSO was used as the reference (vehicle control). The induction potential of each test compound was analyzed by comparing its fold induction to a pre-determined cutoff value for each lot of hepatocytes. The hepatocytes lots used in this study were validated using 10 known inducers and 5 known non-inducers for each isozyme. A cutoff value is determined based on the validation study for each hepatocytes lot.

## CO[C@H]1/C=C/O[C@@]2(C)Oc3c(C)c(O)c4c(c3C2=O)C2=NC3(CCN(CC(C)C)CC3)NC2=C(NC(=O)/C(C)=C/C=C/[C@H](C)[C@H](O)[C@@H](C)[C@@H](O)[C@@H](C)[C@H](OC(=O)c2cncnc2)[C@@H]1C)C4=O [5n, 25-O-(5-pyrimidinecarbonyl)-25-O-desacetyrifabutin]
M. abscessus Bamboo [1]; broth, 5 days
  MBC: 0.13 µM (≈ 0.118 µg/mL)
M. abscessus ATCC 19977; M. abscessus ATCC 19977, 90% growth inhibition, read-out: WT Mab MIC
  MIC: 0.018 µM (≈ 0.0164 µg/mL)
M. abscessus ATCC 19977; WT MIC/Δarr strain MIC
  MIC ratio: 0.72
M. abscessus Bamboo [2]; 5-day assays
  cMBC90/bMBC90: 5
M. abscessus Bamboo [2]; caseum surrogate, 5 days, 90% CFU reduction vs drug-free control
  MBC: 0.65 µM (≈ 0.592 µg/mL)
M. abscessus Bamboo [3]; broth, M. abscessus Bamboo, Table 16, read-out: MIC
  MIC: 0.03 µM (≈ 0.0273 µg/mL)
Δarr M. abscessus
  Δarr Mab MIC: 0.025 µM

## NCC[C@H](O)C(=O)N[C@@H]1C[C@H](N)[C@@H](O[C@H]2O[C@H](CN)[C@@H](O)[C@H](O)[C@H]2O)[C@H](O)[C@H]1O[C@H]1O[C@H](CO)[C@@H](O)[C@H](N)[C@H]1O [Amikacin]
M. abscessus Bamboo [1]; [6]
  MBC: 40 µM (≈ 23.4 µg/mL)
M. abscessus Bamboo [2]; 5-day assays
  cMBC90/bMBC90: 0.3
M. abscessus Bamboo [2]; [7]
  MBC: 12 µM (≈ 7.03 µg/mL)
M. abscessus Bamboo [3]; [8]
  MIC: 25 µM (≈ 14.6 µg/mL)

## COc1nc2ccc(Br)cc2cc1[C@@H](c1ccccc1)[C@@](O)(CCN(C)C)c1cccc2ccccc12 [Bedaquiline, bedaquiline]
M. abscessus Bamboo [1]; Mycobacteroides abscessus, 240 h, assay extended to 10 days
  MBC: 2 µM (≈ 1.11 µg/mL)
M. abscessus Bamboo [2]; 10-day assays
  cMBC90/bMBC90: 33.5
M. abscessus Bamboo [2]; Mycobacteroides abscessus, 240 h, caseum surrogate, assay extended to 10 days
  MBC: 67 µM (≈ 37.2 µg/mL)
M. abscessus Bamboo [3]; [8]
  MIC: 0.4 µM (≈ 0.222 µg/mL)

## CO[C@@]1(NC(=O)Cc2cccs2)C(=O)N2C(C(=O)O)=C(COC(N)=O)CS[C@@H]21 [Cefoxitin, cefoxitin]
M. abscessus Bamboo [1]; [6]
  MBC: 45 µM (≈ 19.2 µg/mL)
M. abscessus Bamboo [2]; 5-day assays
  cMBC90/bMBC90: 0.78
M. abscessus Bamboo [2]; [7]
  MBC: 35 µM (≈ 15 µg/mL)
M. abscessus Bamboo [3]; [8]
  MIC: 29 µM (≈ 12.4 µg/mL)

## CC(C)/N=c1\cc2n(-c3ccc(Cl)cc3)c3ccccc3nc-2cc1Nc1ccc(Cl)cc1 [Clofazimine, clofazimine]
M. abscessus Bamboo [1]; [6]
  MBC: > 128 µM
M. abscessus Bamboo [2]; [7]
  MBC: > 128 µM
M. abscessus Bamboo [3]; [8]
  MIC: 12.5 µM (≈ 5.92 µg/mL)

## C[C@@H](O)[C@H]1C(=O)N2C(C(=O)O)=C(SCCN=CN)C[C@H]12 [Imipenem, imipenem]
M. abscessus Bamboo [1]; [6]
  MBC: 18 µM (≈ 5.39 µg/mL)
M. abscessus Bamboo [2]; 5-day assays
  cMBC90/bMBC90: 2.3
M. abscessus Bamboo [2]; [7]
  MBC: 42 µM (≈ 12.6 µg/mL)
M. abscessus Bamboo [3]; [8]
  MIC: 10 µM (≈ 2.99 µg/mL)

## CC(=O)NC[C@H]1CN(c2ccc(N3CCOCC3)c(F)c2)C(=O)O1 [Linezolid, linezolid]
M. abscessus Bamboo [1]; [6]
  MBC: 32 µM (≈ 10.8 µg/mL)
M. abscessus Bamboo [2]; 5-day assays
  cMBC90/bMBC90: 16
M. abscessus Bamboo [2]; [7]
  MBC: 512 µM (≈ 173 µg/mL)
M. abscessus Bamboo [3]; [8]
  MIC: 25 µM (≈ 8.43 µg/mL)

## COc1c(N2C[C@@H]3CCCN[C@@H]3C2)c(F)cc2c(=O)c(C(=O)O)cn(C3CC3)c12 [Moxifloxacin, moxifloxacin]
M. abscessus Bamboo [1]; [6]
  MBC: 2 µM (≈ 0.803 µg/mL)
M. abscessus Bamboo [2]; 5-day assays
  cMBC90/bMBC90: 4
M. abscessus Bamboo [2]; [7]
  MBC: 8 µM (≈ 3.21 µg/mL)
M. abscessus Bamboo [3]; [8]
  MIC: 6 µM (≈ 2.41 µg/mL)

## CN(C)c1cc(NC(=O)CNC(C)(C)C)c(O)c2c1C[C@H]1C[C@H]3[C@H](N(C)C)C(O)=C(C(N)=O)C(=O)[C@@]3(O)C(O)=C1C2=O [Tigecycline, tigecycline]
M. abscessus Bamboo [1]; [6]
  MBC: 8 µM (≈ 4.69 µg/mL)
M. abscessus Bamboo [2]; 5-day assays
  cMBC90/bMBC90: 1
M. abscessus Bamboo [2]; [7]
  MBC: 8 µM (≈ 4.69 µg/mL)
M. abscessus Bamboo [3]; Mycobacteroides abscessus
  MIC: 12.5 µM (≈ 7.32 µg/mL)

## CO[C@H]1/C=C/O[C@@]2(C)Oc3c(C)c(O)c4c(c3C2=O)C2=NC3(CCN(CC(C)C)CC3)NC2=C(NC(=O)/C(C)=C/C=C/[C@H](C)[C@H](O)[C@@H](C)[C@@H](O)[C@@H](C)[C@H](OC(=O)NC2CCN(Cc3ccccc3)CC2)[C@@H]1C)C4=O [UMN15]
CYP3A4
  CYP3A4 gene fold-induction at 10 μM: 1.2
M. abscessus ATCC 19977; Table 10
  MICWT: 0.013 µM
M. abscessus ATCC 19977; Table 14, carbamate analogs, read-out: WT Mab MIC
  MIC: 0.013 µM (≈ 0.0133 µg/mL)
[4]; Table 18
  ƒAUC/MIC: 0.8
[4]; mouse, in vivo
  CL: 6.40 mL/min/kg
  F: 35%
  Vd: 5.92 L/kg
  AUCp.o.: 5658 ng·h/mL
[5]
  ƒu: 0.2%
[5]; plasma
  plasma unbound fraction: 0.19%
Mycobacterium abscessus; Table 22, read-out: MICMab
  MIC: 0.013 µM (≈ 0.0133 µg/mL)
Δarr M. abscessus; Table 10
  MICΔorr: 0.028 µM

## CO[C@H]1/C=C/O[C@@]2(C)Oc3c(C)c(O)c4c(c3C2=O)C2=NC3(CCN(CC(C)C)CC3)NC2=C(NC(=O)/C(C)=C/C=C/[C@H](C)[C@H](O)[C@@H](C)[C@@H](O)[C@@H](C)[C@H](OC(=O)Nc2cnccn2)[C@@H]1C)C4=O [UMN120]
CYP3A4
  CYP3A4 gene fold-induction at 10 μM: 0.7
M. abscessus ATCC 19977; Table 15, heterocyclic aromatic carbamates, read-out: WT Mab MIC
  MIC: 0.028 µM (≈ 0.0259 µg/mL)
[4]; mouse, in vivo
  F: 73%
  ƒAUC/MIC: 88.8
  AUCp.o.: 55072 ng·h/mL
[5]
  ƒu: 4.2%
[5]; plasma
  plasma unbound (ƒu, %): 4.2%
Mycobacterium abscessus; Table 22, read-out: MICMab
  MIC: 0.028 µM (≈ 0.0259 µg/mL)
Mycobacterium abscessus; against Mycobacterium abscessus, Table 19, read-out: MIC
  MIC: 0.028 µM (≈ 0.0259 µg/mL)

## CO[C@H]1/C=C/O[C@@]2(C)Oc3c(C)c(O)c4c(O)c(c(/C=N/N5CCN(C)CC5)c(O)c4c3C2=O)NC(=O)/C(C)=C\C=C\[C@H](C)[C@H](O)[C@@H](C)[C@@H](O)[C@@H](C)[C@H](OC(C)=O)[C@@H]1C [rifampicin, reference compound]
RFB-R1 M. abscessus
  MIC: > 100 µM
M. abscessus ATCC 19977; Mycobacteroides abscessus, ATCC19977, read-out: WT Mab MIC
  MIC: 5.3 µM (≈ 4.36 µg/mL)
Mycobacterium abscessus; Mycobacteroides abscessus, 72 h, Table 22, read-out: MICMab
  MIC: 5.3 µM (≈ 4.36 µg/mL)
Δarr M. abscessus
  Δarr Mab MIC: 0.26 µM

From patent publication US20260109712A1, “RIFAMYCINS FOR NONTUBERCULOUS MYCOBACTERIA” (priority 2022, published 2026)
